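These data come from cells grown in 96-well plates and exposed to compound for 48 hours at five concentrations. The concentration for 50% growth inhibition is given as GI50.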 The source made the active and inactive calls. No stated cut-off is given here; in the data, active = GI50 up to about 1.1 µM and inactive = higher.
Columns and labels:
Assay in all cases: DTP human tumour cell line panel, 48 h
EKVX = system: EKVX
MDA-MB-435 = system: MDA-MB-435
NCI/ADR-RES = system: NCI/ADR-RES
LOX IMVI = system: LOX IMVI
IGROV-1 = system: IGROV-1
SNB-19 = system: SNB-19
UO-31 = system: UO-31
HCT-15 = system: HCT-15
COLO 205 = system: COLO 205
BT-549 = system: BT-549
NCI-H460 = system: NCI-H460
SF-539 = system: SF-539
U-251 = system: U-251
TK-10 = system: TK-10
SK-MEL-5 = system: SK-MEL-5
ACHN = system: ACHN
DU-145 = system: DU-145
HOP-62 = system: HOP-62
SR = system: SR
SNB-75 = system: SNB-75
NCI-H522 = system: NCI-H522
SF-295 = system: SF-295
UACC-257 = system: UACC-257
A549 = system: A549
PC-3 = system: PC-3
T47D = system: T47D
CAKI-1 = system: CAKI-1
MDA-N = system: MDA-N
HCT-116 = system: HCT-116
SK-MEL-28 = system: SK-MEL-28
NCI-H23 = system: NCI-H23
HT-29 = system: HT-29
Hs-578T = system: Hs-578T
K562 = system: K562
OVCAR-3 = system: OVCAR-3
NCI-H226 = system: NCI-H226
HL-60 = system: HL-60
OVCAR-4 = system: OVCAR-4
OVCAR-5 = system: OVCAR-5
MCF7 = system: MCF7
KM12 = system: KM12
M14 = system: M14
A498 = system: A498
MOLT-4 = system: MOLT-4
MDA-MB-231 = system: MDA-MB-231
786-0 = system: 786-0
HCC 2998 = system: HCC 2998
SN12C = system: SN12C
SK-MEL-2 = system: SK-MEL-2
RXF 393 = system: RXF 393
SW-620 = system: SW-620
HOP-92 = system: HOP-92
SF-268 = system: SF-268
CCRF-CEM = system: CCRF-CEM
UACC-62 = system: UACC-62
OVCAR-8 = system: OVCAR-8
Malme-3M = system: Malme-3M
SK-OV-3 = system: SK-OV-3
RPMI-8226 = system: RPMI-8226

With CC(C)(C)c1ccc(-n2c3nc(=O)n(-c4ccccc4C(F)(F)F)c(=O)c-3cc3ccccc32)cc1 the GI50 (EKVX) was 18.6 µM (inactive), the GI50 (MDA-MB-435) was 15.6 µM (inactive) and the GI50 (NCI/ADR-RES) was 23.4 µM (inactive). The GI50 (LOX IMVI) was 11.9 µM (inactive), the GI50 (IGROV-1) was 29.1 µM (inactive) and the GI50 (SNB-19) was 31.8 µM (inactive). For the same compound, the GI50 (UO-31) was 20.7 µM (inactive), the GI50 (HCT-15) was 12.3 µM and the GI50 (COLO 205) was 19.1 µM (inactive). The GI50 (BT-549) was 24 µM (inactive), the GI50 (NCI-H460) was 4.25 µM (inactive) and the GI50 (SF-539) was 23.8 µM (inactive). The GI50 (U-251) was 11 µM (inactive), the GI50 (TK-10) was 51.9 µM (inactive) and the GI50 (SK-MEL-5) was 15 µM (inactive). For the same compound, the GI50 (ACHN) was 15.8 µM (inactive), the GI50 (DU-145) was 28.1 µM (inactive) and the GI50 (HOP-62) was 18.3 µM (inactive). The GI50 (SR) was 19.3 µM (inactive), the GI50 (SNB-75) was 15.6 µM (inactive) and the GI50 (NCI-H522) was 16.9 µM (inactive). The GI50 (SF-295) was 19 µM (inactive), the GI50 (UACC-257) was 19.6 µM (inactive) and the GI50 (A549) was 29 µM (inactive). For the same compound, the GI50 (PC-3) was 17 µM (inactive), the GI50 (T47D) was 22.9 µM (inactive) and the GI50 (CAKI-1) was 25.1 µM (inactive). For the same compound, the GI50 (MDA-N) was 22.2 µM (inactive), the GI50 (HCT-116) was 10.5 µM (inactive) and the GI50 (SK-MEL-28) was 8.26 µM (inactive). For the same compound, the GI50 (NCI-H23) was 32.3 µM (inactive), the GI50 (HT-29) was 8.32 µM (inactive) and the GI50 (Hs-578T) was 21.9 µM (inactive). The GI50 (K562) was 16.9 µM (inactive), the GI50 (OVCAR-3) was 13.6 µM (inactive) and the GI50 (NCI-H226) was 17 µM (inactive). For the same compound, the GI50 (HL-60) was 9.77 µM (inactive), the GI50 (OVCAR-4) was 27.5 µM (inactive) and the GI50 (OVCAR-5) was 20.2 µM (inactive). For the same compound, the GI50 (MCF7) was 15.6 µM (inactive), the GI50 (KM12) was 16.2 µM (inactive) and the GI50 (M14) was 14.4 µM (inactive). For the same compound, the GI50 (A498) was 31.3 µM (inactive), the GI50 (MOLT-4) was 17.9 µM (inactive) and the GI50 (MDA-MB-231) was 23.8 µM (inactive). The GI50 (786-0) was 25.7 µM (inactive), the GI50 (HCC 2998) was 14.2 µM (inactive) and the GI50 (SN12C) was 20.2 µM (inactive). For the same compound, the GI50 (SK-MEL-2) was 14.6 µM (inactive), the GI50 (RXF 393) was 24.2 µM (inactive) and the GI50 (SW-620) was 25.8 µM (inactive). The GI50 (HOP-92) was 18.1 µM (inactive), the GI50 (SF-268) was 30.5 µM (inactive) and the GI50 (CCRF-CEM) was 13.3 µM (inactive). The GI50 (UACC-62) was 14.9 µM (inactive) and the GI50 (OVCAR-8) was 19.6 µM (inactive).

For Nc1cccnc1NCC1(CO)CCCC1, the GI50 (EKVX) was > 100 µM (inactive), the GI50 (MDA-MB-435) was > 100 µM (inactive) and the GI50 (NCI/ADR-RES) was > 100 µM (inactive). For the same compound, the GI50 (LOX IMVI) was > 100 µM (inactive), the GI50 (IGROV-1) was > 100 µM (inactive) and the GI50 (UO-31) was > 100 µM (inactive). For the same compound, the GI50 (HCT-15) was greater than 100 µM, the GI50 (COLO 205) was > 100 µM (inactive) and the GI50 (BT-549) was > 100 µM (inactive). The GI50 (NCI-H460) was > 100 µM (inactive), the GI50 (SF-539) was > 100 µM (inactive) and the GI50 (U-251) was > 100 µM (inactive). For the same compound, the GI50 (TK-10) was > 100 µM (inactive), the GI50 (SK-MEL-5) was > 100 µM (inactive) and the GI50 (ACHN) was > 100 µM (inactive). For the same compound, the GI50 (DU-145) was > 100 µM (inactive), the GI50 (HOP-62) was > 100 µM (inactive) and the GI50 (SR) was > 100 µM (inactive). For the same compound, the GI50 (SNB-75) was > 100 µM (inactive), the GI50 (NCI-H522) was > 100 µM (inactive) and the GI50 (SF-295) was > 100 µM (inactive). For the same compound, the GI50 (UACC-257) was > 100 µM (inactive), the GI50 (A549) was > 100 µM (inactive) and the GI50 (PC-3) was > 100 µM (inactive). For the same compound, the GI50 (T47D) was > 100 µM (inactive), the GI50 (Malme-3M) was > 100 µM (inactive) and the GI50 (CAKI-1) was > 100 µM (inactive). The GI50 (MDA-N) was > 100 µM (inactive), the GI50 (HCT-116) was > 100 µM (inactive) and the GI50 (SK-MEL-28) was > 100 µM (inactive). For the same compound, the GI50 (NCI-H23) was > 100 µM (inactive), the GI50 (HT-29) was > 100 µM (inactive) and the GI50 (Hs-578T) was > 100 µM (inactive). For the same compound, the GI50 (SK-OV-3) was > 100 µM (inactive), the GI50 (K562) was > 100 µM (inactive) and the GI50 (RPMI-8226) was > 100 µM (inactive). The GI50 (OVCAR-3) was > 100 µM (inactive), the GI50 (NCI-H226) was > 100 µM (inactive) and the GI50 (HL-60) was > 100 µM (inactive). For the same compound, the GI50 (OVCAR-4) was > 100 µM (inactive), the GI50 (OVCAR-5) was > 100 µM (inactive) and the GI50 (MCF7) was > 100 µM (inactive). The GI50 (KM12) was > 100 µM (inactive), the GI50 (A498) was > 100 µM (inactive) and the GI50 (MOLT-4) was > 100 µM (inactive). For the same compound, the GI50 (MDA-MB-231) was > 100 µM (inactive), the GI50 (786-0) was > 100 µM (inactive) and the GI50 (HCC 2998) was > 100 µM (inactive). The GI50 (SN12C) was > 100 µM (inactive), the GI50 (SK-MEL-2) was > 100 µM (inactive) and the GI50 (RXF 393) was > 100 µM (inactive). For the same compound, the GI50 (SW-620) was > 100 µM (inactive), the GI50 (SF-268) was > 100 µM (inactive) and the GI50 (CCRF-CEM) was > 100 µM (inactive). For the same compound, the GI50 (UACC-62) was > 100 µM (inactive) and the GI50 (OVCAR-8) was > 100 µM (inactive).

In the case of NCCCCNCCCN1CCOC1=O, the GI50 (EKVX) was > 100 µM (inactive), the GI50 (MDA-MB-435) was > 100 µM (inactive) and the GI50 (NCI/ADR-RES) was > 100 µM (inactive). The GI50 (LOX IMVI) was > 100 µM (inactive), the GI50 (IGROV-1) was > 100 µM (inactive) and the GI50 (SNB-19) was > 100 µM (inactive). For the same compound, the GI50 (UO-31) was > 100 µM (inactive), the GI50 (HCT-15) was greater than 100 µM and the GI50 (COLO 205) was > 100 µM (inactive). The GI50 (BT-549) was > 100 µM (inactive), the GI50 (NCI-H460) was > 100 µM (inactive) and the GI50 (SF-539) was > 100 µM (inactive). For the same compound, the GI50 (U-251) was > 100 µM (inactive), the GI50 (TK-10) was 70.8 µM (inactive) and the GI50 (SK-MEL-5) was > 100 µM (inactive). The GI50 (ACHN) was > 100 µM (inactive), the GI50 (DU-145) was > 100 µM (inactive) and the GI50 (HOP-62) was > 100 µM (inactive). For the same compound, the GI50 (SR) was > 100 µM (inactive), the GI50 (SNB-75) was > 100 µM (inactive) and the GI50 (NCI-H522) was > 100 µM (inactive). The GI50 (SF-295) was > 100 µM (inactive), the GI50 (UACC-257) was > 100 µM (inactive) and the GI50 (A549) was > 100 µM (inactive). The GI50 (PC-3) was > 100 µM (inactive), the GI50 (T47D) was > 100 µM (inactive) and the GI50 (Malme-3M) was > 100 µM (inactive). The GI50 (CAKI-1) was > 100 µM (inactive), the GI50 (MDA-N) was > 100 µM (inactive) and the GI50 (HCT-116) was > 100 µM (inactive). The GI50 (SK-MEL-28) was > 100 µM (inactive), the GI50 (NCI-H23) was > 100 µM (inactive) and the GI50 (HT-29) was > 100 µM (inactive). The GI50 (Hs-578T) was > 100 µM (inactive), the GI50 (SK-OV-3) was > 100 µM (inactive) and the GI50 (K562) was > 100 µM (inactive). The GI50 (RPMI-8226) was > 100 µM (inactive), the GI50 (OVCAR-3) was > 100 µM (inactive) and the GI50 (NCI-H226) was > 100 µM (inactive). For the same compound, the GI50 (HL-60) was > 100 µM (inactive), the GI50 (OVCAR-5) was > 100 µM (inactive) and the GI50 (MCF7) was > 100 µM (inactive). For the same compound, the GI50 (KM12) was > 100 µM (inactive), the GI50 (M14) was > 100 µM (inactive) and the GI50 (A498) was > 100 µM (inactive). The GI50 (MOLT-4) was > 100 µM (inactive), the GI50 (MDA-MB-231) was > 100 µM (inactive) and the GI50 (786-0) was > 100 µM (inactive). For the same compound, the GI50 (HCC 2998) was > 100 µM (inactive), the GI50 (SN12C) was > 100 µM (inactive) and the GI50 (SK-MEL-2) was > 100 µM (inactive). The GI50 (SW-620) was > 100 µM (inactive), the GI50 (SF-268) was > 100 µM (inactive) and the GI50 (CCRF-CEM) was > 100 µM (inactive). The GI50 (UACC-62) was > 100 µM (inactive) and the GI50 (OVCAR-8) was > 100 µM (inactive).

From ChEMBL document CHEMBL1201862, “PubChem BioAssay data set” (2004)
